This note sets out measurements from ChEMBL document CHEMBL5154644, “Design, Synthesis, and Structure-Activity Relationship Optimization of Pyrazolopyrimidine Amide Inhibitors of Phosphoinositide 3-Kinase γ (PI3Kγ)” (J Med Chem, 2022).

Series [1] addresses T1, Phosphatidylinositol 4,5-bisphosphate 3-kinase catalytic subunit gamma isoform (Homo sapiens, UniProt P48736). The series can be described thus: Inhibition of PI3Kgamma in SDF-1alpha stimulated human whole blood assessed as reduction in phospho-AKT kinase activity preincubated for 1 hr followed by SDF-1alpha stimulation and measured after 2 mins by flow cytometric analysis. In kind it is tissue-based. On the technique in general: In flow cytometry, cells or beads pass a laser one at a time.
Target sequence in this assay (P48736 whole entry, canonical isoform): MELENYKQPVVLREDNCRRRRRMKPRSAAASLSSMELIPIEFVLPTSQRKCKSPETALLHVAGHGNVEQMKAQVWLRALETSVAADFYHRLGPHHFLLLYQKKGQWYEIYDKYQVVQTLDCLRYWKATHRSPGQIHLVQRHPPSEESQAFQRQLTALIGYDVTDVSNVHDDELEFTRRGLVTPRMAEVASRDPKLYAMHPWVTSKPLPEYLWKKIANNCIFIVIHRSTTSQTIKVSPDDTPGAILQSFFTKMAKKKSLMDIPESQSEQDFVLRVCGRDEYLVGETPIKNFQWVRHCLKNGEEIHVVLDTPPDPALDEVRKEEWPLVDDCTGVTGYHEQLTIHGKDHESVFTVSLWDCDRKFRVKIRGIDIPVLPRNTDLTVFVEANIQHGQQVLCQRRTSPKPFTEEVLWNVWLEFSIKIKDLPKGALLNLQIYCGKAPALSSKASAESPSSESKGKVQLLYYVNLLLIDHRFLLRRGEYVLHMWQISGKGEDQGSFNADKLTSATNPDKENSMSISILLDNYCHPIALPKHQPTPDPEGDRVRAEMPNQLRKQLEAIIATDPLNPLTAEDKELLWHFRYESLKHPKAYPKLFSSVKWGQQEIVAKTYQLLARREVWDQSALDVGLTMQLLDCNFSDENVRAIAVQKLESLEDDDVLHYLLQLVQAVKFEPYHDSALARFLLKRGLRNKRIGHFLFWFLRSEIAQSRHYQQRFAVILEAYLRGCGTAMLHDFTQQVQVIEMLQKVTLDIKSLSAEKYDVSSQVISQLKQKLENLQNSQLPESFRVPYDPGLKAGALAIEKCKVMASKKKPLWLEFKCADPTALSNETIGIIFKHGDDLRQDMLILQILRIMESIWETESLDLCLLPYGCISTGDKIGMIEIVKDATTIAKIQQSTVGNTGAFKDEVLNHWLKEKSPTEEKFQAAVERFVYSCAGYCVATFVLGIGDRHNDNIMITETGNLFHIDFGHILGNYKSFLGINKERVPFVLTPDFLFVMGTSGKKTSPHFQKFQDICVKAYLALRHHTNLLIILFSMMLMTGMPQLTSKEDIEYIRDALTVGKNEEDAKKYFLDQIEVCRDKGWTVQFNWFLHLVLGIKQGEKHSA

Series [2] is described as follows: Metabolic stability in human hepatocytes assessed as parent compound remaining at 0.5 uM measured after 2 hrs by LC-MS/MS analysis. In kind it is ADME, cell-based, Hepatocyte.
For another series, the target named is Cytochrome P450 3A4 (Homo sapiens, UniProt P08684). The series can be described thus: Time dependent inhibition of CYP3A4 in human liver microsomes at 40 uM using midazolam as substrate measured after 5 to 20 mins in presence of NADPH by LC/MS/MS analysis. It counts as ADME, Microsome.
Cytochrome P450 3A4, sequence (P08684 whole entry): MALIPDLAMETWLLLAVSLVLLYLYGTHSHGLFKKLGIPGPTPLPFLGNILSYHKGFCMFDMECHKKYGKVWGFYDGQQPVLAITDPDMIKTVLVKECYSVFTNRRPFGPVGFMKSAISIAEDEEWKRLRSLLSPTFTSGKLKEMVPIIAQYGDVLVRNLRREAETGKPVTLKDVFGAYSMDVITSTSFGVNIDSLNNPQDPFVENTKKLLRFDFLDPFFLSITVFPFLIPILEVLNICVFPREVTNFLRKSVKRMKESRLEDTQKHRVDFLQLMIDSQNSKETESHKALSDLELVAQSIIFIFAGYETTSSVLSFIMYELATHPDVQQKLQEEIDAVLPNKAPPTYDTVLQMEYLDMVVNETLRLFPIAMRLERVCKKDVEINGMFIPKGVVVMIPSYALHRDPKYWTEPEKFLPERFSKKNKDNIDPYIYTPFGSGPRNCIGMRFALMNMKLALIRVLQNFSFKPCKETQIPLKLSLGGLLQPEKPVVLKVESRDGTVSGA
Series [3] concerns the target Voltage-gated inwardly rectifying potassium channel KCNH2 (Homo sapiens, UniProt Q12809). Put plainly: Inhibition of human ERG by patch clamp assay. It counts as toxicity.
Series [4] can be described thus: Apparent permeability of the compound across apical to basolateral side in human Caco-2 cells. In kind it is toxicity, cell-based. The following applies: in vivo, 100 mg/kg, 168 h, time 7 day. A general note: Caco-2 cells form a polarised layer with tight junctions and transporters.
Series [5] addresses T1, Phosphatidylinositol 4,5-bisphosphate 3-kinase catalytic subunit gamma isoform. The series can be described thus: Inhibition of PI3Kgamma (unknown origin) at 10 uM using PIP2 as substrate preincubated for 60 mins followed by substrate addition and measured after 45 mins in presence of ATP by TR-FRET analysis. On the technique in general: TR-FRET usually uses a lanthanide donor and a delayed reading to cut background.
Target sequence in this assay (P48736 whole entry, canonical isoform): as the sequence (P48736 whole entry, canonical isoform) above

In a further series the target is T2, Cytochrome P450 2C8 (Homo sapiens, UniProt P10632).
T2 sequence (P10632 whole entry): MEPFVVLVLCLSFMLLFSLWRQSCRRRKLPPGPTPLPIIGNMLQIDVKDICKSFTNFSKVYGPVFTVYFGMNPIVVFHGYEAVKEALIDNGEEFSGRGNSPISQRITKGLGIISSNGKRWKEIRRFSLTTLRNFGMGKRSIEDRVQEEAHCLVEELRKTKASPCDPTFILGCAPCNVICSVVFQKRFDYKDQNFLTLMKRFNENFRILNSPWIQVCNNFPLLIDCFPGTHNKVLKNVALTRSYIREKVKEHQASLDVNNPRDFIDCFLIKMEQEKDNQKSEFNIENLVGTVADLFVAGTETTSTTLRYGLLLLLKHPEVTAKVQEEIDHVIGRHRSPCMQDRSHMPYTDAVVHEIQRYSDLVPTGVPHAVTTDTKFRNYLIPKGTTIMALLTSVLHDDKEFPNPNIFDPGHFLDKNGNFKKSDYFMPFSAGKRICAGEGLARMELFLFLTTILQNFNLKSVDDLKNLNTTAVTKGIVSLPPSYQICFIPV
Put plainly: Time dependent inhibition of CYP2C8 in human liver microsomes at 40 uM measured after 5 to 20 mins in presence of NADPH by LC/MS/MS analysis. It counts as ADME, Microsome.

For series [6], the target named is T1, Phosphatidylinositol 4,5-bisphosphate 3-kinase catalytic subunit gamma isoform. The series can be described thus: Inhibition of PI3Kgamma (unknown origin) in […] stimulated human THP-1 cells assessed as reduction in Akt phosphorylation level at Ser473 residue preincubated for 60 mins followed by rhMCP-1 stimulation and measured after 2 mins by AlphaLisa assay. It counts as cell-based.
Target sequence in this assay (P48736 whole entry, canonical isoform): as the sequence (P48736 whole entry, canonical isoform) above

Series [7] addresses T3, Phosphatidylinositol 4,5-bisphosphate 3-kinase catalytic subunit delta isoform (Homo sapiens, UniProt O00329).
T3 sequence (O00329 whole entry): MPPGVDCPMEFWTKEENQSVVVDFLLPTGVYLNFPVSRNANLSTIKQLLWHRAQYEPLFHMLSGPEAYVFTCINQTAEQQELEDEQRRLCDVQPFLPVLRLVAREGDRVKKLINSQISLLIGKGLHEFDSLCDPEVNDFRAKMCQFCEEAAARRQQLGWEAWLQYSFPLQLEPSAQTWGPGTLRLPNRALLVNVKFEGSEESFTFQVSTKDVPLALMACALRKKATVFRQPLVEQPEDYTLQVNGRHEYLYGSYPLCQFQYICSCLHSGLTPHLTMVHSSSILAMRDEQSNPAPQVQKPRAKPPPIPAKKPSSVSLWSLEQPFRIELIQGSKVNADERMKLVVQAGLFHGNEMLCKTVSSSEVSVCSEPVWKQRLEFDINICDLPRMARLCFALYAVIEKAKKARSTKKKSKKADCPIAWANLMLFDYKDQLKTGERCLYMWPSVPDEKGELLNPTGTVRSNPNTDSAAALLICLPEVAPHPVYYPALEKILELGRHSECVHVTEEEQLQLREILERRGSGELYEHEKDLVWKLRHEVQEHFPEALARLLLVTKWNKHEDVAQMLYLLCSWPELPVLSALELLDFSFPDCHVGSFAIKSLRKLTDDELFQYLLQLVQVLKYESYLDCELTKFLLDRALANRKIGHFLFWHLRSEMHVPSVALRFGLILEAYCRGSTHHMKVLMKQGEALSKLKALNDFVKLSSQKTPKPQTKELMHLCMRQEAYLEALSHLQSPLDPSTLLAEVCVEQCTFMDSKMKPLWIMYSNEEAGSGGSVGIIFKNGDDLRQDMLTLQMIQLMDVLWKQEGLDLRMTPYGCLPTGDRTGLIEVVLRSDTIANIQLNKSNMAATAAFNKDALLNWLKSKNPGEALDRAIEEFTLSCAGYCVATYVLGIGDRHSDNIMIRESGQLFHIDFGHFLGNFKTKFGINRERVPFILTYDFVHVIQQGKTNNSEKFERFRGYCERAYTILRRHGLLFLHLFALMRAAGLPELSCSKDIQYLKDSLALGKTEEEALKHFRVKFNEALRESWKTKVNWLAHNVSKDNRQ
The series can be described thus: Inhibition of PI3Kdelta (unknown origin) using PIP2 as substrate preincubated for 1 hr followed by substrate addition and measured after 60 mins in presence of ATP by ADP-glo assay.

For another series, the species on record is Homo sapiens. Put plainly: Selectivity ratio of IC50 for inhibition of PI3Kbeta (unknown origin) to IC50 for inhibition of PI3Kgamma (unknown origin).
Series [8] in a line: Plasma protein binding in Beagle dog at 1 mg/kg, iv. In kind it is ADME, organism-based, Canis lupus familiaris. Particulars: read-out: PPB (converted).
The nature of series [9]: MRT (infinity) in Sprague-Dawley rat at 1 mg/kg, iv measured up to 8 hrs by LC-MS/MS analysis. In kind it is ADME, organism-based. The following applies: in vivo.
Series [10] addresses T1, Phosphatidylinositol 4,5-bisphosphate 3-kinase catalytic subunit gamma isoform. The series can be described thus: Inhibition of P13Kgamma in LPS and IFNgamma stimulated human M1 macrophage assessed as increase in TNFA expression at 1 uM pretreated for 1 hr followed by LPS and IFNgamma stimulation by qRT-PCR analysis. It counts as cell-based.
Target sequence in this assay (P48736 whole entry, looked up, canonical isoform): as the sequence (P48736 whole entry, canonical isoform) above
The nature of series [11]: MRT (infinity) in C57BL/6 mouse at 0.5 mg/kg, iv. The following applies: in vivo. It counts as ADME, organism-based.
Series [12] is described as follows: Cmax in Sprague-Dawley rat at 10 mg/kg, po measured up to 24 hrs by LC-MS/MS analysis analysis. The following applies: in vivo. Further details: dose 10 mg/kg, time < 24 hrs, route po. It counts as ADME, organism-based.
Another series has as its target Cytochrome P450 2C9 (Homo sapiens, UniProt P11712). Put plainly: Time dependent inhibition of CYP2C9 in human liver microsomes at 40 uM using diclofenac as substrate measured after 5 to 20 mins in presence of NADPH by LC/MS/MS analysis. In kind it is ADME, Microsome.
Series [13] can be described thus: Half life in Beagle dog at 1 mg/kg, iv. In kind it is ADME, organism-based, Canis lupus familiaris. The following applies: in vivo.
Series [14] can be described thus: Metabolic stability in human hepatocytes assessed as parent compound remaining at 0.5 uM measured after 4 hrs by LC-MS/MS analysis. Particulars: read-out: Stability. In kind it is ADME, cell-based, Hepatocyte.

pIC50, pKi: −log10 of the molar value. Active and inactive are the calls of the source. The calls are words filed in the database; no cut-off is given here. Where only a bound is given, the exact number is not on record here.

Cytochrome P450 2C9, sequence (P11712 whole entry): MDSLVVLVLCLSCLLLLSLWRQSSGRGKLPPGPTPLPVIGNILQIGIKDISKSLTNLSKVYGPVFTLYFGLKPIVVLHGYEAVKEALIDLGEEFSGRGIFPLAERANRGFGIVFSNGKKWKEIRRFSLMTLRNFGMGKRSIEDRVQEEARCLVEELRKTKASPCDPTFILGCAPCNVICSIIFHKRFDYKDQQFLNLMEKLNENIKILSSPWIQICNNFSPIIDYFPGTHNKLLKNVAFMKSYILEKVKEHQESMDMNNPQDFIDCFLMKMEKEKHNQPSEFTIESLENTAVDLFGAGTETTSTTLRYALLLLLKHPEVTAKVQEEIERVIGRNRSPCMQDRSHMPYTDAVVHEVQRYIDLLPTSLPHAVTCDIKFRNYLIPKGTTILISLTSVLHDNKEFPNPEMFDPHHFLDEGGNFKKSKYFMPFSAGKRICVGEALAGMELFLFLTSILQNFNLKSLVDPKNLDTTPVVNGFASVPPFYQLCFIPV
Voltage-gated inwardly rectifying potassium channel KCNH2, sequence (Q12809 whole entry): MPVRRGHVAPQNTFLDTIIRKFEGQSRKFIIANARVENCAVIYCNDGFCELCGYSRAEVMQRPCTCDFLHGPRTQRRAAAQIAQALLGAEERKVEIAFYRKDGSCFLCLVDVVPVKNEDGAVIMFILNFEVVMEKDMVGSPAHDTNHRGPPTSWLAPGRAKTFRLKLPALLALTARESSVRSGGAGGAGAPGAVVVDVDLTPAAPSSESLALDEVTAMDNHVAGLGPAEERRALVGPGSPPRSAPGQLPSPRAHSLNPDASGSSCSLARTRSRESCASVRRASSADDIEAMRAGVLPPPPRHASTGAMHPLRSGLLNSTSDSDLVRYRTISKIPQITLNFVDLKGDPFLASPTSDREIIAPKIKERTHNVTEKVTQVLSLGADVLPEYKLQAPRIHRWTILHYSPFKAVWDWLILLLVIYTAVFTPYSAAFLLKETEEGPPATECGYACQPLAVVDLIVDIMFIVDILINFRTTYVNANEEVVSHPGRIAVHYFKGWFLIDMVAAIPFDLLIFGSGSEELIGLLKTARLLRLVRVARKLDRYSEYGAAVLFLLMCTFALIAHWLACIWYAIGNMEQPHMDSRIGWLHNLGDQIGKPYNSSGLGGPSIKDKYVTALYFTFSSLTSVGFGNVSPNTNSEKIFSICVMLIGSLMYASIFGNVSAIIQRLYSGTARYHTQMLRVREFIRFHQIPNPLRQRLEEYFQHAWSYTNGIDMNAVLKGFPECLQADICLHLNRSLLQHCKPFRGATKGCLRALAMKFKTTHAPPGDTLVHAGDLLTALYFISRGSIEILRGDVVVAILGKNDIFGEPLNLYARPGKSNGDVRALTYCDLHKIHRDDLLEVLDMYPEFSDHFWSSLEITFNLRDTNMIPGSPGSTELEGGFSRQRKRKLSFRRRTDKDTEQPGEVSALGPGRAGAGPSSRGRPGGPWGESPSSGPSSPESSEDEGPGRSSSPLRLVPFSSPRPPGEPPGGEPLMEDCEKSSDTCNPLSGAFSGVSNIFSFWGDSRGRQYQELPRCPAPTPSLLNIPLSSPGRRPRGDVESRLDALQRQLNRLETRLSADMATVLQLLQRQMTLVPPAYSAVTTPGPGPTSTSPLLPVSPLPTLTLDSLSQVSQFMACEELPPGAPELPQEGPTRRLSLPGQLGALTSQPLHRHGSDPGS

Turning to `C[C@@H](C1CC1)N1Cc2cc(-c3ccn4nc(N)c(C(=O)N[C@H]5CC[C@@](C)(O)CC5)c4n3)cc(OC(F)F)c2C1=O`, the pIC50 in [1] is 6.52; on Cytochrome P450 3A4, below 4.70; in series [3], below 5.00; on Cytochrome P450 2C8, below 4.70; in [6], 7.47; in series [7], 5.97. The pIC50 on Cytochrome P450 2C9 is below 4.70. The Stability in [2] was 94%. Also, the Activity entry in series [4] is “Non-Toxic”. Moreover, the pKi in series [5] was 9.15. Also, in the series listed under Homo sapiens, the Ratio IC50 was found to be 3680. Also, in series [8], the fraction unbound was 0.034. The MRT inf was 1.86 h in series [9] and 1.87 h in series [11]. In addition, the inhibition entry in series [10] is “Active”. The compound also gave a Cmax in [12] of 703 ng/mL. This compound showed a half-life in series [13] of 4.85 h. Besides, in [14], the remaining at 4 h, 0.5 µM was above 95%.

Turning to `C[C@@H](C1CC1)N1Cc2cc(-c3ccn4nc(N)c(C(=O)N[C@H]5CC[C@@](C)(O)CC5)c4n3)cc(OC(F)(F)F)c2C1=O`, the figures for the negative logarithm of the IC50 (pIC50) in series [1], in [6] and in series [7] were 6.62, 7.42 and 5.78, respectively. Besides, the Stability in [2] came to 58%. Moreover, in the series filed under Homo sapiens, the Ratio IC50 amounted to 7040. The fraction unbound in [8] was 0.048. The MRT inf in series [9] came to 2.33 h; in series [11], 2.03 h. Besides, in series [10], the inhibition entry is “Active”. Besides, in [12], the concentration peaked (Cmax) at 25 ng/mL. In addition, the half-life in [13] is 3.5 h. In series [14], the remaining at 4 h, 0.5 µM is above 95%.

For orientation: pIC50 means the negative decadic logarithm of the IC50, by convention in mol/L. Usually pKi stands for −log10 of the Ki, conventionally taken in molar units. For orientation: MRT inf means a mean duration of stay, worked out from the concentration-time curve. What is called Cmax is the highest concentration seen after dosing. The half-life is how long it takes for the measured level to halve.
